Measurements published in patent US11583538B2, “Substituted pyrrolo[1,2-a]pyrazines and pyrrolo[1,2-a][1,4]diazepines as TREX1 inhibitors” (Venenum Biodesign, LLC, priority 2019, dated 2023).

Tests used:
human TREX1 = human TREX1 (Homo sapiens (Human), UniProt Q9NSU2); assay: TREX1 Exonuclease Assay; type: biochemical
Protocol: For human TREX1, the nucleotide sequence of the gene construct was codon optimized for expression in the bacterial host. The sequence was incorporated into the pMAL-c5e vector (NEB) downstream of a solubility-promoting MBP (maltose binding protein) fusion partner. The fusion protein product was expressed in E. coli strain BL21 (DE3) (Millipore) and purified in a series of chromatographic steps. Initial steps were conducted using a dextrin sepharose affinity column followed by a Q-sepharose ion exchange column (both GE Healthcare). After the second column the MBP partner was removed by incubation with enterokinase (NEB). Further purification was carried out with the second application of a Q-sepharose column followed by a Superdex 75 (GE Healthcare) size exclusion column. Finally, a heparin sepharose column (GE Healthcare) was applied to remove contaminating nucleotides.
To evaluate the effect of compounds on TREX1 activity, test compounds were serially diluted (11-point, 3-fold) from 10 mM stock solutions and delivered to 384-well low-volume assay plates in 80 nL DMSO using an acoustic dispenser. Next, 4 μL of human TREX1 (0.5 nM), or murine TREX1 (1 nM), diluted in assay buffer (20 mM Tris pH 7.5, 5 mM MgCl2, 100 μg/mL BSA, 0.002% Triton X-100, 2 mM DTT), was added to the assay plate. After incubating for 30 minutes, 4 μL of labeled DNA oligonucleotide (500 nM) in assay buffer was added to initiate TREX1 exonuclease activity. The reaction was allowed to proceed for 45 minutes at room temperature prior to the addition of 4 μL of 150 mM EDTA to halt TREX1 activity.

[1] = system: THP1 Dual cells, ISRE Lucia reporter gene, transfected with G3-YSD DNA; assay: Human Cellular EC50 Reporter Assay; type: cell-based; conditions: 72 h, serum-starved cells transfected with G3-YSD 10 ng/ml, three days
Description: Example E is a cell-based assay for TREX1 inhibitors using THP1 Dual™ cells (Invivogen), a human monocyte cell line that has stable integration of an Interferon Stimulated Response Element (ISRE) Lucia reporter gene. The Lucia gene encodes a secreted luciferase reporter protein, under the control of an ISG54 minimal promoter in conjunction with five IFN-stimulated response elements. Activation of the cGAS-STING pathway in THP1 Dual™ cells leads to enhanced luciferase secretion and increased luminescence.
A cell-based assay was established using THP1 Dual™ cells (InvivoGen), a human monocyte cell line that has stable integration of an Interferon Stimulated Response Element (ISRE) Lucia reporter gene. The Lucia gene encodes a secreted luciferase reporter protein, under the control of an ISG54 minimal promoter in conjunction with five IFN-stimulated response elements. Activation of the cGAS-STING pathway in these cells leads to enhanced luciferase secretion. Three days prior to the assay, cells were transferred to a T75 flask at a density of 3.0×10^5 cells/ml in 20 ml of serum-starved media (RPMI 1640 containing 1% Heat-Inactivated FBS, 1× Glutagro, 10 mM HEPES, 1 mM sodium pyruvate, 1×Pen/Strep, 100 μg/ml Normocin, 100 μg/ml Zeocin, 10 μg/ml Blasticidin). On the day of assay cells were collected by centrifugation, washed in 1×DPBS, and resuspended in the 1% serum media at 3.3×10^5 cells/ml. An aliquot of an aqueous solution of the DNA oligonucleotide G3-YSD (InvivoGen) at 1 mg/ml was diluted 100-fold into the transfection reagent LyoVec (InvivoGen) and incubated at ambient temperature for 50 min to allow complex formation. Test compounds in DMSO were transferred to a standard 96-well tissue culture plate via acoustic dispense of 0.54 μl per well. Serum-starved cells were batch transfected with complex at a final DNA concentration of 10 ng/ml for 60 min at ambient temperature before dispensing 180 ul (60,000 cells) per well into the assay plate. The assay plate was then incubated in a humidified chamber at 37° C. in 5% CO2 for three days. An aliquot of 10 μl was removed from each well to combine with 10 μl of the luciferase detection reagent, QUANTI-Luc™ Gold (InvivoGen) in a white 384-well plate. The luminescent signal was then read using an EnVision plate reader (Perkin Elmer). An EC50 for each compound was determined by plotting the signal as a function of log molar concentration and fitting to a four parameter logistic equation. (see Table 32).

human TREX1, sequence (Q9NSU2 whole entry, the tested form may be a part): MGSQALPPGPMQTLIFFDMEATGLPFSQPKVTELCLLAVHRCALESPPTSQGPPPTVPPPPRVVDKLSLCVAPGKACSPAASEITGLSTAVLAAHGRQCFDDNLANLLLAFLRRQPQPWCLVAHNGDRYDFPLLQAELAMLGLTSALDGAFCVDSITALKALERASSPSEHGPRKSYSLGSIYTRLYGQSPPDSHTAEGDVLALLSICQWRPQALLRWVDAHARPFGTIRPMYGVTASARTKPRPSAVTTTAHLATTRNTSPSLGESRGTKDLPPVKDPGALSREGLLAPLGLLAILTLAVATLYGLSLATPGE

COc1c(CNC(=O)[C@@H](CCC(=O)O)N2CCC(CCc3ccccc3)N3C[C@H](N)C[C@H]3C2=O)ccc(Cl)c1Cl (stereo partly shown) [Example 22]
IC50 (human TREX1): < 1 µM | EC50 [1]: < 1 µM

N[C@@H]1C[C@H]2C(=O)N([C@H](CCC(=O)O)C(=O)NCc3ccc(Cl)c(Cl)c3F)CCC(CCc3ccccc3)N2C1 (stereo partly shown) [Example 30]
IC50 (human TREX1): < 1 µM | EC50 [1]: 1 to 10 µM

CCN(CC)C(=O)COC(=O)CC[C@H](C(=O)NCc1ccc(Cl)c(Cl)c1)N1CCC(CCc2ccccc2)N2C[C@H](N)C[C@H]2C1=O (stereo partly drawn) [Example 88, (4R)-2-(diethylamino)-2-oxoethyl 4-((8R,9aS)-8-amino-1-oxo-5-phenethylhexahydro-1H-pyrrolo[1,2-a][1,4]diazepin-2(3H)-yl)-5-((3,4-dichlorobenzyl)amino)-5-oxopentanoate]
IC50 (human TREX1): < 1 µM

CCOC(=O)CC[C@H](C(=O)NCc1ccc(Cl)c(Cl)c1)N1CCC(CCc2ccccc2)N2C[C@H](N)C[C@H]2C1=O (stereo partly drawn) [Example 89, (4R)-ethyl 4-((8R,9aS)-8-amino-1-oxo-5-phenethylhexahydro-1H-pyrrolo[1,2-a][1,4]diazepin-2(3H)-yl)-5-((3,4-dichlorobenzyl)amino)-5-oxopentanoate]
IC50 (human TREX1): < 1 µM

CC(C)OC(=O)CC[C@H](C(=O)NCc1ccc(Cl)c(Cl)c1)N1CCC(CCc2ccccc2)N2C[C@H](N)C[C@H]2C1=O (stereo partly shown) [Example 92]
IC50 (human TREX1): < 1 µM

CCOC(=O)CC[C@H](C(=O)NCc1cc(Cl)c(Cl)cc1F)N1CCC(CCc2ccccc2)N2C[C@H](N)C[C@H]2C1=O (stereo partly shown) [Example 94]
IC50 (human TREX1): < 1 µM

CCOC(=O)CC[C@H](C(=O)N1CCOC[C@H]1c1ccc(Cl)c(Cl)c1)N1CCC(CCc2ccccc2)N2C[C@H](N)C[C@H]2C1=O (stereo partly shown) [Example 96]
IC50 (human TREX1): < 1 µM

CCOC(=O)CC[C@H](C(=O)N1CCCC[C@H]1c1ccc(Cl)c(Cl)c1)N1CCC(CCc2ccccc2)N2C[C@H](N)C[C@H]2C1=O (stereo partly shown) [Example 97]
IC50 (human TREX1): < 1 µM

CCOC(=O)CC[C@H](C(=O)N1CCC[C@H]1c1ccc(Cl)c(Cl)c1)N1CCC(CCc2ccccc2)N2C[C@H](N)C[C@H]2C1=O (stereo partly shown) [Example 98]
IC50 (human TREX1): < 1 µM

CCOC(=O)CC[C@H](C(=O)NCc1cc(Cl)c(Cl)cn1)N1CCC(CCc2ccccc2)N2C[C@H](N)C[C@H]2C1=O (stereo partly shown) [Example 99]
IC50 (human TREX1): < 1 µM

COC(=O)CC[C@H](C(=O)NCc1ccc(Cl)cn1)N1CCC(CCc2ccccc2)N2C[C@H](N)C[C@H]2C1=O (stereo partly shown) [Example 100]
IC50 (human TREX1): < 1 µM

COC(=O)CC[C@H](C(=O)NS(=O)(=O)c1ccc(Cl)c(Cl)c1)N1CCC(CCc2ccccc2)N2C[C@H](N)C[C@H]2C1=O (stereo partly shown) [Example 101]
IC50 (human TREX1): < 1 µM

CCOC(=O)CC[C@H](C(=O)NCc1ccc(Cl)c(Cl)c1OC)N1CCC(CCc2ccccc2)N2C[C@H](N)C[C@H]2C1=O (stereo partly shown) [Example 102]
IC50 (human TREX1): < 1 µM

CCOC(=O)CC[C@H](C(=O)NCc1cc(Cl)c(Cl)cc1OC)N1CCC(CCc2ccccc2)N2C[C@H](N)C[C@H]2C1=O (stereo partly shown) [Example 103]
IC50 (human TREX1): < 1 µM

COC(=O)CC[C@H](C(=O)NCc1ccc(Cl)c(Cl)c1)N1CCC(CCc2ccccc2)N2C[C@H](N)C[C@H]2C1=O (stereo partly drawn) [Example 104, (4R)-methyl 4-((8R,9aS)-8-amino-1-oxo-5-phenethylhexahydro-1H-pyrrolo[1,2-a][1,4]diazepin-2(3H)-yl)-5-((3,4-dichlorobenzyl)amino)-5-oxopentanoate]
IC50 (human TREX1): < 1 µM

COc1c(CNC(=O)[C@@H](CCC(N)=O)N2CCC(CCc3ccccc3)N3C[C@H](N)C[C@H]3C2=O)ccc(Cl)c1Cl (stereo partly shown) [Example 106]
IC50 (human TREX1): < 1 µM

NC(=O)CC[C@H](C(=O)NCc1ccc(Cl)c(Cl)c1F)N1CCC(CCc2ccccc2)N2C[C@H](N)C[C@H]2C1=O (stereo partly shown) [Example 107]
IC50 (human TREX1): < 1 µM

COc1c(CNC(=O)[C@@H](CCC#N)N2CCC(CCc3ccccc3)N3C[C@H](N)C[C@H]3C2=O)ccc(Cl)c1Cl (stereo partly shown) [Example 108]
IC50 (human TREX1): < 1 µM

N#CCC[C@H](C(=O)NCc1ccc(Cl)c(Cl)c1F)N1CCC(CCc2ccccc2)N2C[C@H](N)C[C@H]2C1=O (stereo partly shown) [Example 109]
IC50 (human TREX1): < 1 µM

N#CCC[C@H](C(=O)NCc1ccc(Cl)c(Cl)c1)N1CCC(COc2ccc(F)cc2)N2C[C@H](N)C[C@H]2C1=O (stereo partly shown) [Example 110]
IC50 (human TREX1): < 1 µM

N#CCC[C@H](C(=O)NCc1ccc(Cl)c(Cl)c1)N1CCC(COc2cccc(F)c2)N2C[C@H](N)C[C@H]2C1=O (stereo partly shown) [Example 111]
IC50 (human TREX1): < 1 µM

N#CC[C@H](C(=O)NCc1ccc(Cl)c(Cl)c1)N1CCC(CCc2ccccc2)N2C[C@H](N)C[C@H]2C1=O (stereo partly shown) [Example 112]
IC50 (human TREX1): < 1 µM

N#CC[C@H](C(=O)NCc1ccc(Cl)c(Cl)n1)N1CCC(CCc2ccccc2)N2C[C@H](N)C[C@H]2C1=O (stereo partly shown) [Example 113]
IC50 (human TREX1): < 1 µM

N[C@@H]1C[C@H]2C(=O)N([C@H](CCC(=O)NO)C(=O)NCc3ccc(Cl)c(Cl)c3)CCC(COc3ccc(F)cc3)N2C1 (stereo partly shown) [Example 115]
IC50 (human TREX1): < 1 µM

N[C@@H]1C[C@H]2C(=O)N([C@H](CCC(=O)NO)C(=O)NCc3ccc(Cl)c(Cl)c3)CCC(CCc3ccccc3)N2C1 (stereo partly shown) [Example 116]
IC50 (human TREX1): < 1 µM

CONC(=O)CC[C@H](C(=O)NCc1ccc(Cl)c(Cl)c1)N1CCC(CCc2ccccc2)N2C[C@H](N)C[C@H]2C1=O (stereo partly shown) [Example 117]
IC50 (human TREX1): < 1 µM

COc1c(CNC(=O)[C@@H](CCc2nnn[nH]2)N2CCC(CCc3ccccc3)N3C[C@H](N)C[C@H]3C2=O)ccc(Cl)c1Cl (stereo partly shown) [Example 119]
IC50 (human TREX1): < 1 µM | EC50 [1]: < 1 µM

N[C@@H]1C[C@H]2C(=O)N([C@H](CCc3nnn[nH]3)C(=O)NCc3ccc(Cl)c(Cl)c3F)CCC(CCc3ccccc3)N2C1 (stereo partly shown) [Example 120]
IC50 (human TREX1): < 1 µM | EC50 [1]: 1 to 10 µM

CC(=O)NCC[C@H](C(=O)NCc1ccc(Cl)c(Cl)c1)N1CCC(CCc2ccccc2)N2C[C@H](N)C[C@H]2C1=O (stereo partly shown) [Example 131]
IC50 (human TREX1): < 1 µM

CS(=O)(=O)NCC[C@H](C(=O)NCc1ccc(Cl)c(Cl)c1)N1CCC(CCc2ccccc2)N2C[C@H](N)C[C@H]2C1=O (stereo partly shown) [Example 132]
IC50 (human TREX1): < 1 µM

N[C@@H]1C[C@H]2C(=O)N([C@H](CCNS(=O)(=O)C3CC3)C(=O)NCc3ccc(Cl)c(Cl)c3)CCC(CCc3ccccc3)N2C1 (stereo partly shown) [Example 133]
IC50 (human TREX1): < 1 µM

CNC(=O)CC[C@H](C(=O)NCc1ccc(Cl)c(Cl)c1)N1CCC(CCc2ccccc2)N2C[C@H](N)C[C@H]2C1=O (stereo partly shown) [Example 136]
IC50 (human TREX1): < 1 µM

Cc1nnc(CC[C@H](C(=O)NCc2ccc(Cl)c(Cl)c2F)N2CCC(CCc3ccccc3)N3C[C@H](N)C[C@H]3C2=O)[nH]1 (stereo partly shown) [Example 140]
IC50 (human TREX1): < 1 µM

CC(C)Oc1c(CNC(=O)[C@@H](CCC#N)N2CCC(CCc3ccccc3)N3C[C@H](N)C[C@H]3C2=O)ccc(Cl)c1Cl (stereo partly shown) [Example 141]
IC50 (human TREX1): < 1 µM

N[C@@H]1C[C@H]2C(=O)N([C@H](CCNS(=O)(=O)C(F)(F)F)C(=O)NCc3ccc(Cl)c(Cl)c3)CCC(CCc3ccccc3)N2C1 (stereo partly shown) [Example 142]
IC50 (human TREX1): < 1 µM

CCOC(=O)N[C@@H]1C[C@H]2C(=O)N([C@H](CCC(=O)O)C(=O)NCc3ccc(Cl)c(Cl)c3)CCC(CCc3ccccc3)N2C1 (stereo partly shown) [Example 143]
IC50 (human TREX1): 10 to 100 µM

CC(C)Oc1c(CNC(=O)[C@@H](CCc2nnn[nH]2)N2CCC(CCc3ccccc3)N3C[C@H](N)C[C@H]3C2=O)ccc(Cl)c1Cl (stereo partly shown) [Example 144]
IC50 (human TREX1): < 1 µM

CCOC(=O)CC[C@H](C(=O)NCc1ccc(Cl)c(Cl)c1)N1CCC(CCc2ccccc2)N2C[C@H](NC(=O)OCC)C[C@H]2C1=O (stereo partly shown) [Example 145]
IC50 (human TREX1): 10 to 100 µM

N[C@@H]1C[C@H]2C(=O)N([C@H](CCC(=O)O)C(=O)NCc3ccc(Cl)c(C(F)(F)F)c3)CCC(CCc3ccccc3)N2C1 (stereo partly shown) [Example 146]
IC50 (human TREX1): < 1 µM
